Consider 29 compounds from PMC12645437, “Orthogonal IMiD-Degron Pairs Induce Selective Protein Degradation in Cells” (ACS Chemical Biology, 2025).

One assay relates to Jurkat cells. The assay can be described thus: TMTpro quantitative proteomics, 16 h. To be noted: for Scaled value (to 150), replicate 01 / Scaled value (to 150), replicate 02 / Scaled value (to 150), replicate 03 / Log2(ratio) compound/UT / Ratio to untreated, replicate 01 / Ratio to untreated, replicate 02 / Ratio to untreated, replicate 03: Jurkat whole cell extracts; for Scaled value (to 150), replicate 01 / Scaled value (to 150), replicate 02 / Scaled value (to 150), replicate 03: TMTpro SPS-MS3; for Log2(ratio) compound/UT: Welch's t-test with FDR correction.

The target in assay [1] is T1, Q147A mutant degron (ANQS) fused to EGFP (Homo sapiens, UniProt Q96SW2+Q9UKT9, Q147A).
T1 construct: pLVX-Sprout-IKZF3 130-189aa Q147A (ANQS); expressed in transfected cells
T1 sequence (Q9UKT9 130-189 Q147A): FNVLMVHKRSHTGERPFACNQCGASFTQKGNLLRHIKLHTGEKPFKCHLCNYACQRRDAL
T1 sequence (Q96SW2 whole entry, the tested form may be a part): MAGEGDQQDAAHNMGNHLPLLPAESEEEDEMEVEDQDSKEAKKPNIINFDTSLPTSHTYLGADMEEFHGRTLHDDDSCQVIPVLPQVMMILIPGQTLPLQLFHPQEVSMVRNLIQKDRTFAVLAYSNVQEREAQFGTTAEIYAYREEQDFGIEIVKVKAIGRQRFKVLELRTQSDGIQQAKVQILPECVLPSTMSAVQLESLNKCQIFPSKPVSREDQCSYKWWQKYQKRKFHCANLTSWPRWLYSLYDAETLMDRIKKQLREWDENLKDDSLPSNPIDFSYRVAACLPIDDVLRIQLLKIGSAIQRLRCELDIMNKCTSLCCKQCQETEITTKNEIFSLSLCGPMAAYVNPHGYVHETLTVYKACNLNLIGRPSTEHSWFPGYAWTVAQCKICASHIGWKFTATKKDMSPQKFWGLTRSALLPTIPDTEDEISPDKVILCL
T1 sequence (Q16531 whole entry partner, the tested form may be a part): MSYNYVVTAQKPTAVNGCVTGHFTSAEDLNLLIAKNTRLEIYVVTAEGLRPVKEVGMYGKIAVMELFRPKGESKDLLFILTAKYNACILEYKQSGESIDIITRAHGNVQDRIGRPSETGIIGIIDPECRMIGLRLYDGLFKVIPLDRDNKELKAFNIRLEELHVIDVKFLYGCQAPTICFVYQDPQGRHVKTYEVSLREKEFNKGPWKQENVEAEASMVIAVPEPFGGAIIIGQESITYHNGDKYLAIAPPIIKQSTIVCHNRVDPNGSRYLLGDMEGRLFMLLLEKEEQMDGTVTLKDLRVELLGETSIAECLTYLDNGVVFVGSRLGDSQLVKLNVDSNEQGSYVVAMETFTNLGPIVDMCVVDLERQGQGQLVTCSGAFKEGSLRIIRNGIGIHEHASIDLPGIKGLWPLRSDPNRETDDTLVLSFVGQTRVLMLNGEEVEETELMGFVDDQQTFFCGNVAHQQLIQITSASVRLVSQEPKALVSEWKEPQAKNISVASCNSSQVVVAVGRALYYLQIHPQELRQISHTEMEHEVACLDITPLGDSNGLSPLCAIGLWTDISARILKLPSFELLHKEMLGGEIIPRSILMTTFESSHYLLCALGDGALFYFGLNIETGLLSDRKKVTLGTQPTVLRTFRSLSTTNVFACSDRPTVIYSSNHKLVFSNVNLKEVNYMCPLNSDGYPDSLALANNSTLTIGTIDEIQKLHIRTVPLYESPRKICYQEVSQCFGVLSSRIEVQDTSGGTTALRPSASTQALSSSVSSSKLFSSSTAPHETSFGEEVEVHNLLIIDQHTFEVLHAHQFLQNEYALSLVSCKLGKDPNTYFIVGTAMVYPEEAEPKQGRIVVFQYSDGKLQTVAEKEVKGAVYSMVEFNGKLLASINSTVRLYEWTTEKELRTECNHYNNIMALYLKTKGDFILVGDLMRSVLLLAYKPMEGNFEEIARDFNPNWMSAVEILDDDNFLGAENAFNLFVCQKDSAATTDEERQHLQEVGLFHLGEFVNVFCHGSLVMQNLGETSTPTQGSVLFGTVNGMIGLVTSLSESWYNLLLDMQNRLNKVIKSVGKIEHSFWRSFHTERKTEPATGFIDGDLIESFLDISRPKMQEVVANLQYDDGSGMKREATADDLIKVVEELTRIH
The assay can be described thus: Ratiometric EGFP:mCherry flow cytometry degradation assay, 18 h. Particulars: Jurkat, read-out: DMax Q147A/%. The class given is cell-based.

The mark [2] stands for this setting: protein AADAT isoform 2 (Q8N5Z0-2).

Molecules are shown by their SMILES. Like-named read-outs stand apart in the source and are kept apart here.

Experimental for Jurkat cells: Quantitative proteomics screens were carried out in untransduced Jurkat cells, embryonic stem cells (ESCs), and the multiple myeloma cell line, MM.1S. We used Jurkat cells, as our work up to this point had employed this cell line, and we selected ESCs and MM.1S cells as they express known CRBN neosubstrates, including IKZF1, IKZF3, RAB28, RNF166, SALL4, ZFP91, and ZNF827.
Proteomics - cell lysis and protein digestion
The viability of Jurkat cells was tested after 16-h treatment with corresponding chemicals
viable cells in each condition. Next, ~10^7 cells per condition were collected by centrifugation (1000 rpm), washed twice with ice-cold PBS, and lysed in RIPA buffer [50 mM HEPES pH 7.4, 150 mM NaCl, 1% sodium deoxycholate, 1% NP-40, 0.1% SDS, 10 mM sodium pyrophosphate, 10 mM β-glycerophosphate, 2.5 mM MgCl2, 200 µM TCEP, phosphatase and protease inhibitor cocktail (in-house)], to produce whole cell extracts. Whole-cell extracts were sonicated, and protein concentrations were determined using the Bradford assay. Protein extracts (100 µg) were subjected to disulfide bond reduction with 5 mM TCEP (10 min) and alkylation with 25 mM chloroacetamide (20 min). Methanol–chloroform precipitation was performed prior to protease digestion. In brief, four parts of neat methanol were added to each sample and vortexed, one part chloroform was added to the sample and vortexed, and finally, three parts water was added to the sample and vortexed. The sample was centrifuged at 8000 rpm for 5 min at room temperature and subsequently washed twice with 100% methanol. Samples were resuspended in 100 mM EPPS pH8.5 containing
0.1% RapiGest and digested at 37 °C for 6 h with trypsin at a 100:1 protein-to-protease ratio.
Samples were then subjected to TMTpro
labeling. The preparation of MM1S cell extracts was conducted using the same procedure as for
Jurkat cells. ESC cells were plated onto 6 cm dishes 24 hours prior to the chemical treatment.
Following the chemical treatment, the cells on the dish were washed with DPBS four times, after
which RIPA buffer was added directly to the dish, and the lysate was collected using a scraper.
The whole cell lysates were then processed similarly to the Jurkat cell lysates.
Proteomics - Tandem mass tag labeling
Proline-based reporter isobaric Tandem Mass Tag (TMTpro) labeling of dried peptide samples
resuspended in 100 mM EPPS pH 8.5, was carried out as follows. TMTpro reagent was added to
samples (100 µg peptide), along with acetonitrile, to achieve a final acetonitrile concentration of
approximately 30% (v/v). Following incubation at room temperature for 1 h, the labeling efficiency
of a small aliquot was tested. The reaction was then quenched with hydroxylamine to a final
concentration of 0.5% (v/v) for 15 min. The TMTpro-labeled samples were pooled together at a
1:1 ratio. The sample was vacuum centrifuged to near dryness and subjected to C18 solid-phase
The dried TMTpro-labeled sample was resuspended in 100 μL of 10 mM NH4HCO3 pH 8.0 and
fractionated using basic pH reverse phase HPLC 40. Briefly, samples were offline fractionated over
a 90 min run, into 96 fractions by high pH reverse-phase HPLC (Agilent LC1260) through an aeris
peptide xb-c18 column (Phenomenex; 250 mm × 3.6 mm) for total proteome with mobile phase A
containing 5% acetonitrile and 10 mM NH4HCO3, and mobile phase B containing 90% acetonitrile

On to `CN1CCN(c2ccc3c(c2)C(=O)N(C2CCC(=O)NC2=O)C3=O)CC1` (centres unmarked) [Cmpd23], for which, in the assay on Jurkat cells (protein A2M (P01023)), the “Scaled value (to 150), replicate 01” value came to 8.458; the “Scaled value (to 150), replicate 02” value is given as 9.12; the “Scaled value (to 150), replicate 03” value is on record as 12.2998; the “Log2(ratio) compound/UT” value is -0.3516. For the same compound, in the assay on Jurkat cells (protein A2M (P01023)), the “Ratio to untreated, replicate 01” value is given as 0.6228; the “Ratio to untreated, replicate 02” value was found to be 0.6715; the “Ratio to untreated, replicate 03” value is 0.9057. In the assay with Jurkat cells (protein AAAS (Q9NRG9)), the “Scaled value (to 150), replicate 01” value amounted to 10.4661; the “Scaled value (to 150), replicate 02” value is listed as 9.826; the “Scaled value (to 150), replicate 03” value is on record as 10.0212; the “Log2(ratio) compound/UT” value is given as -0.01283. Also, in the assay with Jurkat cells (protein AAAS (Q9NRG9)), the “Ratio to untreated, replicate 01” value came out at 1.017; the “Ratio to untreated, replicate 02” value was determined as 0.9547; the “Ratio to untreated, replicate 03” value is 0.9736. For the same compound, in the assay on Jurkat cells (protein AACS (Q86V21)), the “Scaled value (to 150), replicate 01” value was 9.826; the “Scaled value (to 150), replicate 02” value is 9.749; the “Scaled value (to 150), replicate 03” value amounted to 9.8; the “Log2(ratio) compound/UT” value is -0.01545. In addition, in the assay on Jurkat cells (protein AACS (Q86V21)), the “Ratio to untreated, replicate 01” value is 0.9811; the “Ratio to untreated, replicate 02” value turned out to be 0.9735; the “Ratio to untreated, replicate 03” value is 0.9785. In the assay on Jurkat cells (setting [2]), the “Scaled value (to 150), replicate 01” value is reported as 10.0867; the “Scaled value (to 150), replicate 02” value amounted to 10.5129; the “Scaled value (to 150), replicate 03” value is reported as 9.582; the “Log2(ratio) compound/UT” value was found to be 0.05616. Besides, in the assay with Jurkat cells (setting [2]), the “Ratio to untreated, replicate 01” value was found to be 1.033; the “Ratio to untreated, replicate 02” value stood at 1.076; the “Ratio to untreated, replicate 03” value is listed as 0.9809.

Turning to `Nc1ccc2c(c1)C(=O)N(C1CCC(=O)NC1=O)C2=O` (centres unmarked) [Compound 3], in assay [1] (18 h, Fig 2B), the Dmax was determined as 90%.

As to `O=C1CCC(N2C(=O)c3cccc(O)c3C2=O)C(=O)N1` (centres unmarked) [Compound 4], in assay [1], the Dmax was found to be 46%.

As to `COc1cccc2c1C(=O)N(C1CCC(=O)NC1=O)C2=O` (centres unmarked) [Compound 6], the Dmax in assay [1] (18 h, Fig 2B) stood at 75%.

For `COc1ccc2c(c1)C(=O)N(C1CCC(=O)NC1=O)C2=O` (centres unmarked) [Compound 7], in assay [1] (18 h, Fig 2B), the Dmax came out at 82%.

For the compound `O=C1CCC(N2C(=O)c3cccc(F)c3C2=O)C(=O)N1` (centres unmarked) [Compound 8], the Dmax in assay [1] (18 h, Fig 2B) was 57%.

As to `O=C1CCC(N2C(=O)c3ccc(F)cc3C2=O)C(=O)N1` (centres unmarked) [Compound 9], the Dmax in assay [1] (18 h, Fig 2B) is 89%.

Regarding `O=C1CCC(N2C(=O)c3cccc(Cl)c3C2=O)C(=O)N1` (centres unmarked) [Compound 10], in assay [1] (18 h, Fig 2B), the Dmax turned out to be 88%.

As to `O=C1CCC(N2C(=O)c3ccc(Cl)cc3C2=O)C(=O)N1` (centres unmarked) [Compound 11], the Dmax in assay [1] (18 h, Fig 2B) was 37%.

Regarding `O=C1CCC(N2C(=O)c3cccc(Br)c3C2=O)C(=O)N1` (centres unmarked) [Compound 12], in assay [1] (18 h, Fig 2B), the Dmax came out at 66%.

With `O=C1CCC(N2C(=O)c3ccc(Br)cc3C2=O)C(=O)N1` (centres unmarked) [Compound 13], the Dmax in assay [1] (18 h, Fig 2B) was 56%.

As for `O=C1CCC(N2C(=O)c3cccc(I)c3C2=O)C(=O)N1` (centres unmarked) [Compound 14], the Dmax in assay [1] (18 h, Fig 2B) came to 86%.

As for `O=C1CCC(N2C(=O)c3ccc(I)cc3C2=O)C(=O)N1` (centres unmarked) [Compound 15], the Dmax in assay [1] (18 h, Fig 2B) worked out at 77%.

With `Cc1cccc2c1C(=O)N(C1CCC(=O)NC1=O)C2=O` (centres unmarked) [Compound 16], the Dmax in assay [1] (18 h, Fig 2B) was determined as 87%.

As for `Cc1ccc2c(c1)C(=O)N(C1CCC(=O)NC1=O)C2=O` (centres unmarked) [Compound 17], the Dmax in assay [1] (18 h, Fig 2B) is 72%.

Consider `O=C1CCC(N2C(=O)c3ccc(C(F)(F)F)cc3C2=O)C(=O)N1` (centres unmarked) [Compound 18], for which the Dmax in assay [1] (18 h, Fig 2B) worked out at 91%.

`O=C1CCC(N2C(=O)c3ccc(-c4ccccc4)cc3C2=O)C(=O)N1` (centres unmarked) [Compound 20]: in assay [1] (18 h, Fig 2B), the Dmax worked out at 66%.

Take `CN(C)c1ccc2c(c1)C(=O)N(C1CCC(=O)NC1=O)C2=O` (centres unmarked) [Compound 21]: the Dmax in assay [1] (18 h, Fig 2B) is 86%.

Consider `CCNc1cccc2c1C(=O)N(C1CCC(=O)NC1=O)C2=O` (centres unmarked) [Compound 24], for which the Dmax in assay [1] (18 h, Fig 2B) came to 96%.

In the case of `O=C1CCC(N2C(=O)c3cccc(NCc4ccccc4)c3C2=O)C(=O)N1` (centres unmarked) [Compound 26], the Dmax in assay [1] (18 h, Fig 2B) amounted to 95%.

With `O=C1CCC(N2C(=O)c3cccc(NCc4cccnc4)c3C2=O)C(=O)N1` (centres unmarked) [Compound 27], the Dmax in assay [1] (18 h, Fig 2B) was 93%.

Take `Cc1ccccc1CNc1cccc2c1C(=O)N(C1CCC(=O)NC1=O)C2=O` (centres unmarked) [Compound 28]: the Dmax in assay [1] (18 h, Fig 2B) came to 94%.

Take `O=C1CCC(N2C(=O)c3cccc(OCc4ccccc4)c3C2=O)C(=O)N1` (centres unmarked) [Compound 30]: in assay [1] (18 h, Fig 2B), the Dmax amounted to 85%.

Turning to `O=C1CCC(N2C(=O)c3cccc(OCc4cccnc4)c3C2=O)C(=O)N1` (centres unmarked) [Compound 31], in assay [1] (18 h, Fig 2B), the Dmax came to 82%.

Take `Cc1ccccc1COc1cccc2c1C(=O)N(C1CCC(=O)NC1=O)C2=O` (centres unmarked) [Compound 32]: the Dmax in assay [1] (18 h, Fig 2B) came to 65%.

For `O=C1CCC(N2C(=O)c3cccc(OC(c4ccccc4)c4ccccc4)c3C2=O)C(=O)N1` (centres unmarked) [Compound 34], the Dmax in assay [1] (18 h, Fig 2B) came out at 90%.

Regarding `O=C1CCC(N2C(=O)c3cccnc3C2=O)C(=O)N1` (centres unmarked) [Compound 35], in assay [1] (18 h, Fig 2B), the Dmax was found to be 60%.

As for `O=C1CCC(N2C(=O)c3ccncc3C2=O)C(=O)N1` (centres unmarked) [Compound 36], in assay [1] (18 h, Fig 2B), the Dmax was determined as 91%.

Take `Nc1cccc2c1CN(C1CCC(=O)NC1=O)C2=O` (centres unmarked) [lenalidomide]: the “Scaled value (to 150), replicate 01” value in the assay with Jurkat cells (protein A2M (P01023)) came out at 10.2473; with Jurkat cells (protein AAAS (Q9NRG9)) it was 9.75; in the assay on Jurkat cells (protein AACS (Q86V21)), 10.2128; in the assay with Jurkat cells (setting [2]) it was 9.894. Further, the “Scaled value (to 150), replicate 02” value with Jurkat cells (protein A2M (P01023)) was found to be 8.044; with Jurkat cells (protein AAAS (Q9NRG9)) it was 10.198; in the assay with Jurkat cells (protein AACS (Q86V21)), 10.0368; in the assay on Jurkat cells (setting [2]) it was 10.004. Besides, the “Scaled value (to 150), replicate 03” value worked out at 8.233 in the assay with Jurkat cells (protein A2M (P01023)), 10.3119 in the assay on Jurkat cells (protein AAAS (Q9NRG9)), 9.972 in the assay on Jurkat cells (protein AACS (Q86V21)) and 10.2911 in the assay on Jurkat cells (setting [2]). Besides, the “proteins significantly degraded (quantitative proteomics)” value in the assay on Jurkat cells (Jurkat, 1 μM, 16 h, Welch's t test) is on record as “at least 6 proteins”.
